This passage reports T/C results from PubChem BioAssay AID330 (DTP/NCI, 2004).

The test concerns P388 leukemia ip, CD2F1 mice, survival T/C. Nature of the test: NCI In Vivo Anticancer Drug Screen. Data for tumor model P388 Leukemia (intraperitoneal) in CD2F1 (CDF1) mice. The following applies: endpoint: median survival time, higher = longer survival. A digest of the protocol: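 Mice carrying the transplanted tumor received test compound or vehicle. Survival was recorded in each group, and the value is the treated-group measurement divided by that of the vehicle-treated control group.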

Setting [1] is: dose: 60.0 mg/kg/injection, schedule: Q01DX005 (ip), vehicle: Klucel (hydroxypropylcellulose) (HPC).
Setting [2] is: dose: 240.0 mg/kg/injection, schedule: Q01DX005 (ip), vehicle: Klucel (hydroxypropylcellulose) (HPC).
The mark [3] stands for this setting: dose: 60.0 mg/kg/injection, schedule: Q01DX005 (ip), vehicle: saline with Tween-80.
Setting [4] is: dose: 120.0 mg/kg/injection, schedule: Q01DX005 (ip), vehicle: saline with Tween-80.
[5] abbreviates: dose: 50.0 mg/kg/injection, schedule: Q01DX009 (ip), vehicle: Klucel (hydroxypropylcellulose) (HPC).
[6] abbreviates: dose: 100.0 mg/kg/injection, schedule: Q01DX009 (ip), vehicle: Klucel (hydroxypropylcellulose) (HPC).
Setting [7] is: dose: 200.0 mg/kg/injection, schedule: Q01DX009 (ip), vehicle: Klucel (hydroxypropylcellulose) (HPC).
Setting [8] is: dose: 30.0 mg/kg/injection, schedule: Q01DX005 (ip), vehicle: saline with Tween-80.
Where [9] appears, read: dose: 50.0 mg/kg/injection, schedule: Q01DX005 (ip), vehicle: saline with Tween-80.
Setting [10] is: dose: 100.0 mg/kg/injection, schedule: Q01DX005 (ip), vehicle: saline with Tween-80.
[11] abbreviates: dose: 200.0 mg/kg/injection, schedule: Q01DX005 (ip), vehicle: saline with Tween-80.
Where [12] appears, read: dose: 240.0 mg/kg/injection, schedule: Q01DX005 (ip), vehicle: saline with Tween-80.

“And” between values parts separate entries of the source, which are not always exact repeats. Equal values may be shown once. Inconclusive results and toxic doses are left out.

Turning to `O=C(c1ccc(O)cc1)c1ccc(O)cc1O`, the T/C reads like this: (dose: 66.0 mg/kg/injection, schedule: Q01DX001 (ip), vehicle: saline) 100 % of control; (dose: 150.0 mg/kg/injection, schedule: Q01DX001 (ip), vehicle: saline) 88 % of control; (dose: 200.0 mg/kg/injection, schedule: Q01DX001 (ip), vehicle: saline) 100 % of control; (dose: 400.0 mg/kg/injection, schedule: Q01DX001 (ip), vehicle: saline) 100 % of control.
Take `CN(Cc1nc(-c2ccccc2)no1)c1nc(-c2ccccc2)no1`: the T/C (dose: 100.0 mg/kg/injection, schedule: Q01DX001 (ip), vehicle: Klucel (hydroxypropylcellulose) (HPC)) is 97 % of control; the T/C (dose: 200.0 mg/kg/injection, schedule: Q01DX001 (ip), vehicle: Klucel (hydroxypropylcellulose) (HPC)) is 109 % of control; the T/C (dose: 400.0 mg/kg/injection, schedule: Q01DX001 (ip), vehicle: Klucel (hydroxypropylcellulose) (HPC)) was 95 % of control.
`CCCCCCC[n+]1cccc(C(=O)N2CCOCC2)c1`: the T/C reads like this: (dose: 12.5 mg/kg/injection, schedule: Q01DX009 (ip), vehicle: saline with Tween-80) 104 % of control; (dose: 25.0 mg/kg/injection, schedule: Q01DX009 (ip), vehicle: saline with Tween-80) 98 % of control; (dose: 50.0 mg/kg/injection, schedule: Q01DX009 (ip), vehicle: saline with Tween-80) 100 % of control.
On to `N=c1nc(N)c2ncc(/C=C/c3ccccc3)n(O)c-2n1`, for which the T/C runs as follows: (dose: 15.0 mg/kg/injection, schedule: Q01DX009 (ip), vehicle: saline) 97 % of control; (dose: 30.0 mg/kg/injection, schedule: Q01DX009 (ip), vehicle: saline) 101 % of control; (dose: 60.0 mg/kg/injection, schedule: Q01DX009 (ip), vehicle: saline) 101 % of control.
For the compound `Cc1ccc(S(=O)(=O)CN(CN2C(=O)CCC2=O)c2ccc(Cl)cc2)cc1`, the T/C is 101 % of control (dose: 15.0 mg/kg/injection, schedule: Q01DX005 (ip), vehicle: Klucel (hydroxypropylcellulose) (HPC)); 95 % of control (dose: 30.0 mg/kg/injection, schedule: Q01DX005 (ip), vehicle: Klucel (hydroxypropylcellulose) (HPC)); 91 % of control and 93 % of control under setting [1]; 90 % of control under setting [2].
In the case of `CC[C@@]1(O)C(=O)OCc2c1cc1n(c2=O)Cc2cc3cc(OC)ccc3nc2-1`, the T/C was 165 % of control (dose: 1.57 mg/kg/injection, schedule: Q04DX003 (ip), vehicle: other) and 98 % of control (dose: 3.13 mg/kg/injection, schedule: Q04DX003 (ip), vehicle: other).
As to `CCN(CC)C(=O)c1c(C(=O)OC)c(C)n(NC(=O)c2cccc(C)c2)c1C`, the T/C reads like this: under setting [3], 90 % of control; under setting [4], 87 % of control.
With `C/C=C/C(=O)OCC1CCN(C)C1` (stereo unspecified), the T/C reads like this: (dose: 12.5 mg/kg/injection, schedule: Q01DX009 (ip), vehicle: Klucel (hydroxypropylcellulose) (HPC)) 95 % of control; (dose: 25.0 mg/kg/injection, schedule: Q01DX009 (ip), vehicle: Klucel (hydroxypropylcellulose) (HPC)) 94 % of control; under setting [5], 96 % of control; under setting [6], 94 % of control; under setting [7], 89 % of control.
Consider `CSc1c(N(C)C)c(=O)c1=S`, for which the T/C runs as follows: (dose: 15.0 mg/kg/injection, schedule: Q01DX005 (ip), vehicle: saline with Tween-80) 99 % of control; under setting [8], 108 % of control; under setting [3], 107 % of control.
For the compound `N#CCCN(CCC#N)Cc1c(O)c(O)c(CN(CCC#N)CCC#N)c2ccccc12`, the T/C by setting is: under setting [9], 102 % of control and 105 % of control; under setting [10], 115 % of control and 118 % of control; under setting [11], 122 % of control and 124 % of control.
Consider `S=C(N/N=C/c1ccccn1)Nc1ccccn1`, for which the T/C by setting is: (dose: 130.0 mg/kg/injection, schedule: Q04DX003 (ip), vehicle: Klucel (hydroxypropylcellulose) (HPC)) 117 % of control; (dose: 200.0 mg/kg/injection, schedule: Q04DX003 (ip), vehicle: Klucel (hydroxypropylcellulose) (HPC)) 123 % of control; (dose: 300.0 mg/kg/injection, schedule: Q04DX003 (ip), vehicle: Klucel (hydroxypropylcellulose) (HPC)) 107 % of control.
Turning to `C=C(C)C(=O)N(C)c1nc(N(C)C)nc(N(C)C)n1`, the T/C (dose: 50.0 mg/kg/injection, schedule: Q01DX005 (ip), vehicle: Klucel (hydroxypropylcellulose) (HPC)) was 101 % of control; the T/C (dose: 100.0 mg/kg/injection, schedule: Q01DX005 (ip), vehicle: Klucel (hydroxypropylcellulose) (HPC)) is 103 % of control; the T/C (dose: 200.0 mg/kg/injection, schedule: Q01DX005 (ip), vehicle: Klucel (hydroxypropylcellulose) (HPC)) was 103 % of control.
For the compound `CCC1(c2ccccc2)C(=O)NC(=O)N(CN2CCOCC2)C1=O` (stereo unspecified), the T/C by setting is: under setting [1], 100 % of control; (dose: 120.0 mg/kg/injection, schedule: Q01DX005 (ip), vehicle: Klucel (hydroxypropylcellulose) (HPC)) 100 % of control; under setting [2], 98 % of control.
Take `CSCCC([NH-])C(=O)O.CSCCC([NH-])C(=O)O.[Zn+2]` (stereo unspecified): the T/C under setting [9] was 110 % of control and the T/C under setting [10] is 111 % of control.
As for `CCCCCCCNc1ncnc2[nH]ncc12`, the T/C reads like this: under setting [9], 112 % of control; under setting [10], 107 % of control; under setting [11], 107 % of control.
For the compound `CCCCOC(=O)N(CCF)N=O`, the T/C (dose: 3.12 mg/kg/injection, schedule: Q01DX001 (ip), vehicle: saline with Tween-80) is 109 % of control; the T/C (dose: 6.25 mg/kg/injection, schedule: Q01DX001 (ip), vehicle: saline with Tween-80) was 118 % of control and 119 % of control; the T/C (dose: 12.5 mg/kg/injection, schedule: Q01DX001 (ip), vehicle: saline with Tween-80) was 118 % of control and 119 % of control.
Turning to `COc1ccc2c(c1)NC(=O)Cn1nnnc1-2`, the T/C (dose: 25.0 mg/kg/injection, schedule: Q04DX002 (ip), vehicle: saline with Tween-80) was 96 % of control; the T/C (dose: 50.0 mg/kg/injection, schedule: Q04DX002 (ip), vehicle: saline with Tween-80) is 91 % of control; the T/C (dose: 100.0 mg/kg/injection, schedule: Q04DX002 (ip), vehicle: saline with Tween-80) was 96 % of control; the T/C (dose: 400.0 mg/kg/injection, schedule: Q04DX002 (ip), vehicle: saline with Tween-80) is 93 % of control.
As for `CC(C)(C)OC1COCCO1` (stereo unspecified), the T/C by setting is: under setting [3], 102 % of control; under setting [4], 99 % of control; under setting [12], 93 % of control.
For the compound `CCc1cccc(NC(=O)NNC(=O)c2ccncc2)c1`, the T/C reads like this: under setting [5], 96 % of control; under setting [6], 100 % of control.
Take `[Se]=P(N1CCOCC1)(N1CCOCC1)N1CCOCC1`: the T/C is 101 % of control (dose: 13.75 mg/kg/injection, schedule: Q01DX001 (ip), vehicle: Klucel (hydroxypropylcellulose) (HPC)) and 104 % of control (dose: 27.5 mg/kg/injection, schedule: Q01DX001 (ip), vehicle: Klucel (hydroxypropylcellulose) (HPC)).
Consider `COc1ccc(N=Cc2ccccc2P(c2ccccc2)c2ccccc2)cc1`, for which the T/C is 101 % of control under setting [5], 100 % of control under setting [6] and 100 % of control under setting [7].
On to `COc1cc(C2c3cc4c(cc3OC(OC(C)=O)C2C)OCO4)cc(OC)c1OC` (stereo unspecified), for which the T/C runs as follows: under setting [3], 96 % of control; under setting [4], 94 % of control; under setting [12], 105 % of control.
`COc1cc2c(cc1OC)C(=O)c1nccc3ccc(OC)c(c13)O2`: the T/C runs as follows: (dose: 6.75 mg/kg/injection, schedule: Q01DX005 (ip), vehicle: Klucel (hydroxypropylcellulose) (HPC)) 100 % of control; (dose: 13.5 mg/kg/injection, schedule: Q01DX005 (ip), vehicle: Klucel (hydroxypropylcellulose) (HPC)) 92 % of control; (dose: 27.0 mg/kg/injection, schedule: Q01DX005 (ip), vehicle: Klucel (hydroxypropylcellulose) (HPC)) 101 % of control; (dose: 54.0 mg/kg/injection, schedule: Q01DX005 (ip), vehicle: Klucel (hydroxypropylcellulose) (HPC)) 92 % of control.
In the case of `CC(C)(C)C(=O)Oc1c2ccccc2cc2ccccc12`, the T/C runs as follows: under setting [8], 88 % of control; under setting [3], 88 % of control and 89 % of control; under setting [4], 86 % of control.
In the case of `O=[N+]([O-])c1ccc(Nc2ccccc2[N+](=O)[O-])cc1`, the T/C by setting is: (dose: 7.5 mg/kg/injection, schedule: Q01DX009 (ip), vehicle: saline with Tween-80) 94 % of control; (dose: 15.0 mg/kg/injection, schedule: Q01DX009 (ip), vehicle: saline with Tween-80) 94 % of control; (dose: 30.0 mg/kg/injection, schedule: Q01DX009 (ip), vehicle: saline with Tween-80) 91 % of control.
